Data on nine compounds can be found in article PMC6237173, “Synthesis of novel 6,7-dimethoxy-4-anilinoquinolines as potent c-Met inhibitors” (Journal of Enzyme Inhibition and Medicinal Chemistry, 2018).

Where only a bound is given, the exact number is not on record here.

One series addresses T1, c-Met kinase (Homo sapiens, UniProt P08581).
T1 construct: purchased Carna
In words: c-Met inhibition assay (Caliper motility shift assay). Format: biochemical. As to conditions: for c-Met inhibition % Inhibition (10 μΜ): 10 μΜ compound; for c-Met inhibition % Inhibition (10 μΜ) / IC50: n = 3 (mean ± SD). How it is done: A Caliper motility shift assay was applied to test the potency of synthesised compounds against c-Met kinase. Briefly, the compounds were dissolved in DMSO (Sigma) at 0.5 mM concentration, and then were diluted 50× to the final desired highest inhibitor concentration (10 μM) in reaction by DMSO. For all compounds, 100 μL of the diluted compound solution in tubes was transferred to a well on a 96-well plate (Corning) and was serially diluted 10× by transferring 10 μL dilution to 90 μL DMSO in the next well. 100 μL DMSO was added to two empty wells in the same 96-well plate for no compound control and no enzyme control. The plate was marked as source plate. 10 μL of compound solution from source plate was transferred to a new 96-well plate as the intermediate plate. […] After that, 5 μL solution from each well of the intermediate plate was transferred to a 384-well plate (Corning) as the assay plate in duplicates.c-Met kinase (Carna) was added in 1× kinase base buffer to prepare 2.5× enzyme solution, and FAM-labled peptide (GL Biochem) and ATP (Sigma) were added in 1× kinase base buffer to prepare 2.5× peptide solution. 10 μL of 2.5× enzyme solution was added to each well of the 384-well assay plate that already contained 5 μL of compound in 10% DMSO, and then incubated at room temperature for 10 min. […] The data were collected on Caliper and the conversion data were copied from Caliper program.
IC50 values were calculated from three independent experiments by fitting the data in XLfit with the following equation: Y = Bottom + (Top-Bottom)/(1 + (IC50/X)^HillSlope).

The test system of series [1] is MCF-7 (human breast cancer) cell line. Description: Cell proliferation assay (MTT), MCF-7. Type of series: cell-based. As to conditions: MCF7, 48 h exposure, n = 3 (mean ± SD), read-out: Proliferative inhibition IC50, MCF-7. How it is done:
(§1) The anti-proliferative activities of the prepared compounds (12a-12s) were evaluated against A549, MCF-7 and MKN-45 cell lines by MTT assay in vitro. Briefly, tumour cells were cultured to log phase in RPMI 1640 medium supplemented with 10% foetal bovine serum (FBS). After diluting to 2 × 10^4 cells mL^−1 with the complete medium, 100 µL of the obtained cell suspension was added to each well of 96-well culture plates. Subsequently, incubation was performed at 37 °C in 5% CO2 for 24 h before the anti-proliferative assessment. Tested samples at pre-set concentrations were added to 6 wells with cabozantinib as a positive reference. After 48 h exposure period, 40 µL of PBS containing 2.5 mg mL^−1 of MTT was added to each well. Four hours later, 100 µL extraction solution (10% SDS-5% isobutyl alcohol-0.010M HCl) was added. After an overnight incubation at 37°C, the absorbance was measured at a wavelength of 570 nm with an ELISA microplate reader. All compounds were tested three times in each tumour cell lines. The IC50 values were the averages of three determinations and calculated by concentration-response curve fitting method.
(§2) All the synthesised compounds […] were evaluated for their antiproliferation activities against A549 (human lung cancer), MCF-7 (human breast cancer) and MKN-45 (human gastric cancer) cell lines by MTT assay, using cabozantinib as the positive control.

The test system of series [2] is A549 (human lung cancer) cell line. Description: Cell proliferation assay (MTT), A549. Format: cell-based. As to conditions: 48 h exposure, n = 3 (mean ± SD), read-out: Proliferative inhibition IC50, A549. The procedure: as §1, §2
The subject of series [3] is MKN-45 (human gastric cancer) cell line. In words: Cell proliferation assay (MTT), MKN-45. Format: cell-based. Conditions: 48 h exposure, n = 3 (mean ± SD), read-out: Proliferative inhibition IC50, MKN-45. How it is done: as §1, §2

T1 sequence (P08581 25-1390): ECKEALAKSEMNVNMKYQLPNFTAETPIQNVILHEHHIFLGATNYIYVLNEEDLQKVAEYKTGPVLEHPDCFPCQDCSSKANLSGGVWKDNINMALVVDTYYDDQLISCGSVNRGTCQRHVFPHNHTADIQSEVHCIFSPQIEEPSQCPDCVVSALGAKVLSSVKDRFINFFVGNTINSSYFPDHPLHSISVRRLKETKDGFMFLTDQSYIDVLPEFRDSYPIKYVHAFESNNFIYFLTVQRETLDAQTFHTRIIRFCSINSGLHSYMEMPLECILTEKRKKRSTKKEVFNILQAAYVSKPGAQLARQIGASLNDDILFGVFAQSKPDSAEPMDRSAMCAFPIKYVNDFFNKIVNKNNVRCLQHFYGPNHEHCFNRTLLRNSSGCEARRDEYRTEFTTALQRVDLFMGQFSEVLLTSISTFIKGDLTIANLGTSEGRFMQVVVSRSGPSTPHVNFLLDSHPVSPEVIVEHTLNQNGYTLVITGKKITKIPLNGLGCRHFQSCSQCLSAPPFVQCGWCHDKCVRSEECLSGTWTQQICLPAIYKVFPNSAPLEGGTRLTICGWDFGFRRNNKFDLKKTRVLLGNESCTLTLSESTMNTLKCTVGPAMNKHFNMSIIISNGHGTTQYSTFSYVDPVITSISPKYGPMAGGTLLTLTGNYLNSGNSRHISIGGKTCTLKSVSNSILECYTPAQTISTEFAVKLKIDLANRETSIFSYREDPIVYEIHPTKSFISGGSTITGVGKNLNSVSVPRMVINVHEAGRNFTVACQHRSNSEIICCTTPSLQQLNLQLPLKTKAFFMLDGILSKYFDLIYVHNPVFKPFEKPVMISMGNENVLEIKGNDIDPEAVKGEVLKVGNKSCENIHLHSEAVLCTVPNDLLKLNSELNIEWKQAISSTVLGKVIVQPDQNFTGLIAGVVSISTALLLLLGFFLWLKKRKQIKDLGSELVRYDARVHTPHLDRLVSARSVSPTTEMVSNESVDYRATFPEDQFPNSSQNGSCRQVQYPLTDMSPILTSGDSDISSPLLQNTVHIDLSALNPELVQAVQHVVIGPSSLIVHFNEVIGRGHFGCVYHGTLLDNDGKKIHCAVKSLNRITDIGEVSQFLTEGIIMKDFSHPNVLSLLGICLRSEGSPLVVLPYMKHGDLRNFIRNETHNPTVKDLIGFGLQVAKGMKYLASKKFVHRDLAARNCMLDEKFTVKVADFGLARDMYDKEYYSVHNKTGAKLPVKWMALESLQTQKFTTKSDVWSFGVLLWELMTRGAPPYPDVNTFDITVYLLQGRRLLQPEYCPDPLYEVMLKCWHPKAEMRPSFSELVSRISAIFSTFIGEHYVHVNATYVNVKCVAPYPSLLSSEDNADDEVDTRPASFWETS

For `COc1cc2nccc(Nc3ccc4nc(-c5ccc(Br)cc5)[nH]c4c3)c2cc1OC` [Compound 12g, N-(2–(4-bromophenyl)-1H-benzo[d]imidazol-6-yl)-6,7-dimethoxyquinolin-4-amine], the melting point fell in the range of 280 to 282 °C. In addition, on c-Met kinase, the “c-Met inhibition % Inhibition (10 μΜ)” value turned out to be 54.2 ± 0.1% and the IC50 was 5.5 ± 0.9 µM. The “fold lower c-Met activity than compound 12c” value on c-Met kinase (ratio of c-Met IC50 values, versus 12c) is “about 50 fold”. Further, the IC50 in series [1] was 46.3 ± 3.7 µM. In series [2], the IC50 is 38.5 ± 2.4 µM. In addition, the IC50 in series [3] was 55 ± 3.4 µM.

`COc1cc2nccc(Nc3ccc4nc(-c5ccc(C(C)(C)C)cc5)[nH]c4c3)c2cc1OC` [Compound 12n, N-(2–(4-(tert-butyl)phenyl)-1H-benzo[d]imidazol-6-yl)-6,7-dimethoxyquinolin-4-amine] showed a melting point of 257 to 259 °C. Also, on c-Met kinase, the “c-Met inhibition % Inhibition (10 μΜ)” value turned out to be 97.1 ± 3.5% and the IC50 came out at 0.03 ± 0.008 µM. Moreover, the IC50 in series [1] is 6.1 ± 0.6 µM. The IC50 in series [2] is 7.3 ± 1 µM. For the same compound, the IC50 in series [3] amounted to 13.4 ± 0.5 µM.

Take `COc1cc2nccc(Nc3ccc4nc(-c5cccc(F)c5)[nH]c4c3)c2cc1OC` [Compound 12b, N-(2–(3-fluorophenyl)-1H-benzo[d]imidazol-6-yl)-6,7-dimethoxyquinolin-4-amine]: the melting point lay in the range of 286 to 288 °C. On c-Met kinase, the “c-Met inhibition % Inhibition (10 μΜ)” value was determined as 62.8 ± 1.2% and the IC50 turned out to be 1.2 ± 0.4 µM. In series [1], the IC50 was 48.6 ± 5.2 µM. Also, the IC50 in series [2] amounted to 45 ± 3.3 µM. The IC50 in series [3] was 57.5 ± 1.9 µM.

As to `COc1cc2nccc(Nc3ccc4nc(-c5ccccc5C)[nH]c4c3)c2cc1OC` [Compound 12j, 6,7-Dimethoxy-N-(2-(o-tolyl)-1H-benzo[d]imidazol-6-yl)quinolin-4-amine], the melting point was in the range of 174 to 175 °C. Also, the “c-Met inhibition % Inhibition (10 μΜ)” value on c-Met kinase was 23.0 ± 0.4%. Further, the IC50 in series [1] is over 100 µM. For the same compound, in series [2], the concentration for half-maximal inhibition (IC50) is over 100 µM. The IC50 in series [3] is over 100 µM.

Take `COc1cc2nccc(Nc3ccc4nc(-c5cc(F)ccc5Br)[nH]c4c3)c2cc1OC` [Compound 12s, N-(2–(2-bromo-5-fluorophenyl)-1H-benzo[d]imidazol-6-yl)-6,7-dimethoxyquinolin-4-amine]: the melting point lay in the range of 284 to 286 °C. On c-Met kinase, the “c-Met inhibition % Inhibition (10 μΜ)” value came out at 23.0 ± 1.1%. The “c-Met inhibitory activity in words” value on c-Met kinase (SAR statement, ortho-substituted compounds) was “loss of activity”. Also, the IC50 in series [1] is 92.7 ± 5.3 µM. Further, the IC50 in series [2] was over 100 µM. Moreover, in series [3], the concentration for half-maximal inhibition (IC50) is over 100 µM.

In turn, `COc1cc2nccc(Nc3ccc4nc(-c5ccc(C)cc5)[nH]c4c3)c2cc1OC` [Compound 12l, 6,7-Dimethoxy-N-(2-(p-tolyl)-1H-benzo[d]imidazol-6-yl)quinolin-4-amine] gave a melting point of 316 to 319 °C. Moreover, at c-Met kinase, the “c-Met inhibition % Inhibition (10 μΜ)” value was 69.0 ± 1.2% and the IC50 worked out at 0.32 ± 0.07 µM. For the same compound, the IC50 in series [1] came out at 24 ± 0.9 µM. For the same compound, the IC50 in series [2] was 27.3 ± 1.6 µM. Further, in series [3], the IC50 came to 31.8 ± 1.4 µM.

Compound `COc1cc2nccc(Nc3ccc4nc(-c5ccccc5Cl)[nH]c4c3)c2cc1OC` [Compound 12d, N-(2–(2-chlorophenyl)-1H-benzo[d]imidazol-6-yl)-6,7-dimethoxyquinolin-4-amine] registered a melting point of 287 to 290 °C. Besides, the “c-Met inhibition % Inhibition (10 μΜ)” value at c-Met kinase was determined as 17.4 ± 3.7%. The IC50 in series [1] is over 100 µM. Further, the IC50 in series [2] is over 100 µM. The IC50 in series [3] was over 100 µM.

In turn, `COc1cc2nccc(Nc3ccc4nc(-c5ccccc5I)[nH]c4c3)c2cc1OC` [Compound 12h, N-(2–(2-iodophenyl)-1H-benzo[d]imidazol-6-yl)-6,7-dimethoxyquinolin-4-amine] came in with a melting point of 207 to 209 °C. Also, the “c-Met inhibition % Inhibition (10 μΜ)” value on c-Met kinase amounted to 21.6 ± 2.5%. Besides, in series [1], the IC50 is over 100 µM. Moreover, the IC50 in series [2] was determined as 92.4 ± 5.1 µM. In series [3], the IC50 is over 100 µM.

With `COc1cc2nccc(Oc3ccc(NC(=O)C4(C(=O)Nc5ccc(F)cc5)CC4)cc3)c2cc1OC` [cabozantinib, reference compound], the results for the IC50 in series [1], in series [2] and in series [3] were 7.2 ± 0.5 µM, 4.5 ± 0.8 µM and 11.8 ± 1.4 µM, respectively.

As a reminder, the melting point is the temperature, or range, at which the solid turns liquid. A word on the IC50: it is the concentration at which inhibition is half-maximal.
